# Measured values reported in ChEMBL document CHEMBL1938278, “Protective effect of ginseng sapogenins against 2,2'-azobis (1-aminopropane) dihydrochloride (AAPH)-induced LLC-PK₁ cell damage” (2012).
# What was measured:
# Type in all cases: functional
# Conditions in all cases: Sus scrofa, LLC-PK1, 24 h; read-out: Activity
# LLC-PK1 [1] = assay: Renoprotective activity against AAPH-induced oxidative damage in pig LLC-PK1 cells assessed as cell viability at 1 ug/ml after 24 hrs by MTT assay relative to control
# LLC-PK1 [2] = assay: Renoprotective activity against AAPH-induced oxidative damage in pig LLC-PK1 cells assessed as cell viability at 10 ug/ml after 24 hrs by MTT assay relative to control
# LLC-PK1 [3] = assay: Renoprotective activity against AAPH-induced oxidative damage in pig LLC-PK1 cells assessed as cell viability at 5 ug/ml after 24 hrs by MTT assay relative to control
Compound,viability at 1 µg/mL (LLC-PK1 [1]),viability at 10 µg/mL (LLC-PK1 [2]),viability at 5 µg/mL (LLC-PK1 [3])
CC(C)=CC/C=C(\C)[C@H]1CC[C@]2(C)[C@@H]1[C@H](O)C[C@@H]1[C@@]3(C)CC[C@H](O)C(C)(C)[C@@H]3CC[C@]12C,60.7%,64.6%,63.7%
C=C(CCC=C(C)C)[C@H]1CC[C@]2(C)[C@@H]1[C@H](O)C[C@@H]1[C@@]3(C)CC[C@H](O)C(C)(C)[C@@H]3[C@@H](O)C[C@]12C,76.9%,101%,94.4%
CC(C)=CC/C=C(\C)[C@H]1CC[C@]2(C)[C@@H]1[C@H](O)C[C@@H]1[C@@]3(C)CC[C@H](O)C(C)(C)[C@@H]3[C@@H](O)C[C@]12C,61.5%,63.3%,63.3%
C=C(CCC=C(C)C)[C@H]1CC[C@]2(C)[C@@H]1[C@H](O)C[C@@H]1[C@@]3(C)CC[C@H](O)C(C)(C)[C@@H]3CC[C@]12C,61.8%,85.5%,69.9%
CC(C)=CCC[C@](C)(O)[C@H]1CC[C@]2(C)[C@@H]1[C@H](O)C[C@@H]1[C@@]3(C)CC[C@H](O)C(C)(C)[C@@H]3[C@@H](O)C[C@]12C,61.1%,85.7%,73.3%
CC(C)=CCC[C@](C)(O)[C@H]1CC[C@]2(C)[C@@H]1[C@H](O)C[C@@H]1[C@@]3(C)CC[C@H](O)C(C)(C)[C@@H]3CC[C@]12C,62.2%,62.6%,72.6%
